In ChEMBL document CHEMBL1201862, “PubChem BioAssay data set” (2004):
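Test compounds were applied to cells in 96-well plates for 48 hours at 5 doses. Abbreviation: GI50, concentration required for 50% inhibition of growth.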 The source made the active and inactive calls. Cut-off read from the data, not from the text of the source: active = GI50 up to about 1.1 µM and inactive = higher.

Assays:
Assay in all cases: growth of human tumour cells (NCI), 48 h
[1] = test system: M14
[2] = test system: RPMI-8226
[3] = test system: NCI-H226
[4] = test system: HCC 2998
[5] = test system: T47D
[6] = test system: MDA-MB-435
[7] = test system: COLO 205
[8] = test system: U-251
[9] = test system: 786-0
[10] = test system: MDA-N
[11] = test system: SF-295
[12] = test system: OVCAR-8
[13] = test system: NCI-H522
[14] = test system: KM12
[15] = test system: NCI-H460
[16] = test system: SR
[17] = test system: HCT-116
[18] = test system: RXF 393
[19] = test system: SF-268
[20] = test system: SNB-19

Row | SMILES | GI50 [1] | GI50 [2] | GI50 [3] | GI50 [4] | GI50 [5] | GI50 [6] | GI50 [7] | GI50 [8] | GI50 [9] | GI50 [10] | GI50 [11] | GI50 [12] | GI50 [13] | GI50 [14] | GI50 [15] | GI50 [16] | GI50 [17] | GI50 [18] | GI50 [19] | GI50 [20]
1 | Cc1cc(S(=O)(=O)Nc2nc(Nc3ccc(Cl)cc3)n[nH]2)c(S)cc1Cl | 59.6 µM (inactive) | > 100 µM (inactive) | > 100 µM (inactive) | > 100 µM (inactive) | > 100 µM (inactive) | > 100 µM (inactive) | 79.3 µM (inactive) | 27.9 µM (inactive) | > 100 µM (inactive) | 55.2 µM (inactive) | 91.2 µM (inactive) | > 100 µM (inactive) | 70.5 µM (inactive) | 31.6 µM (inactive) | 86.9 µM (inactive) | > 100 µM (inactive) | > 100 µM (inactive) | > 100 µM (inactive) | 75.5 µM (inactive) | 80.9 µM (inactive)
2 | COC(=O)CCc1cc(OC)c2c(c1)[C@H](C(=O)OC)[C@@H](c1ccc(O)c(OC)c1)O2 | 38.3 µM (inactive) | 17.6 µM (inactive) | > 100 µM (inactive) | 21.4 µM (inactive) | 55.5 µM (inactive) | 15.1 µM (inactive) | 41.2 µM (inactive) | 38.4 µM (inactive) | 46.3 µM (inactive) | 17.7 µM (inactive) | 47.1 µM (inactive) | 78.2 µM (inactive) | 38.3 µM (inactive) | 30.6 µM (inactive) | 37.8 µM (inactive) | 1.43 µM (inactive) | 35.5 µM (inactive) | 55.8 µM (inactive) | 52.6 µM (inactive) | 51.9 µM (inactive)
3 | CC(C)CC(NC(=O)C(Cc1ccccc1)NC(=O)[C@H]1CC[C@H](NC(=O)C(Cc2ccc(OC(C)(C)C)cc2)NC(=O)OC(C)(C)C)C1)C(N)=O (stereo not given in full) | 16.6 µM (inactive) | 17.7 µM (inactive) | 18.6 µM (inactive) | 14.5 µM (inactive) | 18.5 µM (inactive) | 18.7 µM (inactive) | 18.8 µM (inactive) | 14.8 µM (inactive) | 46.7 µM (inactive) | 19.3 µM (inactive) | 28.8 µM (inactive) | 18.4 µM (inactive) | 14.4 µM (inactive) | 20.2 µM (inactive) | 17.3 µM (inactive) | 29.9 µM (inactive) | 14.7 µM (inactive) | 67.8 µM (inactive) | 24.6 µM (inactive) | 38.4 µM (inactive)
4 | O=C1c2cc(CCl)sc2C(=O)c2ccsc21 | < 0.0187 µM (active) | 0.184 µM (active) | 1.69 µM (inactive) | 1.67 µM (inactive) | 0.241 µM (active) | 0.0187 µM (active) | 1.37 µM (inactive) | 0.333 µM (active) | 1.53 µM (inactive) | 0.0183 µM (active) | 0.0966 µM (active) | 0.215 µM (active) | 0.422 µM (active) | 1.62 µM (inactive) | 1.31 µM (inactive) | 0.142 µM (active) | 0.189 µM (active) | 0.231 µM (active) | 0.195 µM (active) | 0.225 µM (active)
5 | CC(=O)[C@@]1(O)CC[C@H]2[C@@H]3C[C@H](C)C4=CC(=O)CC[C@]4(C)[C@H]3[C@@H](O)C[C@@]21C | > 100 µM (inactive) | < 0.01 µM (active) | > 100 µM (inactive) | > 100 µM (inactive) | 94.2 µM (inactive) | > 100 µM (inactive) | > 100 µM (inactive) | > 100 µM (inactive) | > 100 µM (inactive) | > 100 µM (inactive) | > 100 µM (inactive) | > 100 µM (inactive) | 73.6 µM (inactive) | > 100 µM (inactive) | > 100 µM (inactive) | > 100 µM (inactive) | > 100 µM (inactive) | > 100 µM (inactive) | > 100 µM (inactive) | > 100 µM (inactive)
6 | CC12c3c4cccc3Oc3cc(N)cc(c31)Oc1cc(N)cc(c12)O4 | 4.55 µM (inactive) | 5.93 µM (inactive) | 5.62 µM (inactive) | 4.61 µM (inactive) | 9.98 µM (inactive) | 1.24 µM (inactive) | 3.29 µM (inactive) | 6.93 µM (inactive) | 2.56 µM (inactive) | 1.31 µM (inactive) | 2.53 µM (inactive) | 0.524 µM (active) | 2.24 µM (inactive) | 4.26 µM (inactive) | 3.48 µM (inactive) | 6.22 µM (inactive) | 3.14 µM (inactive) | 0.408 µM (active) | 4.31 µM (inactive) | 7.14 µM (inactive)
7 | COc1cc([C@@H]2c3[nH]c4ccccc4c3C(Nc3ccc([N+](=O)[O-])cc3)[C@H]3COC(=O)N23)cc(OC)c1O (stereo not given in full) | 0.321 µM (active) | 0.0652 µM (active) | 0.138 µM (active) | 0.392 µM (active) | 0.466 µM (active) | 0.505 µM (active) | 0.548 µM (active) | 0.147 µM (active) | 0.177 µM (active) | 0.875 µM (active) | 0.125 µM (active) | 0.285 µM (active) | 0.407 µM (active) | 0.326 µM (active) | < 0.0181 µM (active) | 0.0481 µM (active) | 0.365 µM (active) | 0.382 µM (active) | 0.299 µM (active) | 0.127 µM (active)
8 | COc1ccc(/C=C2/C(=O)C(c3ccccc3)N(c3ccccc3)C2=O)cc1OC (stereo not given) | > 10 µM (inactive) | > 10 µM (inactive) | > 10 µM (inactive) | > 10 µM (inactive) | > 10 µM (inactive) | > 10 µM (inactive) | > 10 µM (inactive) | > 10 µM (inactive) | > 10 µM (inactive) | > 10 µM (inactive) | > 10 µM (inactive) | > 10 µM (inactive) | > 10 µM (inactive) | > 10 µM (inactive) | > 10 µM (inactive) | > 10 µM (inactive) | > 10 µM (inactive) | > 10 µM (inactive) | > 10 µM (inactive) | > 10 µM (inactive)
9 | COC(=O)C1(Cc2ccccc2)Cc2c(C)ccc(C)c2C1=O (stereo not given) | 25.1 µM (inactive) | 29 µM (inactive) | 21.1 µM (inactive) | 28 µM (inactive) | 16.7 µM (inactive) | 17.4 µM (inactive) | 12.4 µM (inactive) | 30 µM (inactive) | 37.5 µM (inactive) | 37.1 µM (inactive) | 31.8 µM (inactive) | 14.4 µM (inactive) | 19.2 µM (inactive) | 13.8 µM (inactive) | 31.9 µM (inactive) | 23.9 µM (inactive) | 19.8 µM (inactive) | 21.8 µM (inactive) | 39.6 µM (inactive) | 48.4 µM (inactive)
10 | COC(=O)Cc1cccc2c1CCC2=O | > 100 µM (inactive) | > 100 µM (inactive) | > 100 µM (inactive) | > 100 µM (inactive) | > 100 µM (inactive) | > 100 µM (inactive) | > 100 µM (inactive) | > 100 µM (inactive) | > 100 µM (inactive) | > 100 µM (inactive) | > 100 µM (inactive) | > 100 µM (inactive) | > 100 µM (inactive) | > 100 µM (inactive) | > 100 µM (inactive) | > 100 µM (inactive) | > 100 µM (inactive) | > 100 µM (inactive) | > 100 µM (inactive) | > 100 µM (inactive)
11 | O=C(Nc1nc2ccccc2s1)c1cc([N+](=O)[O-])ccc1Cl | 8.97 µM (inactive) | 4.81 µM (inactive) | 16.9 µM (inactive) | 12.6 µM (inactive) | 13.9 µM (inactive) | 3.13 µM (inactive) | 19.6 µM (inactive) | 6.43 µM (inactive) | 11.1 µM (inactive) | 3.58 µM (inactive) | 22.3 µM (inactive) | 5 µM (inactive) | 3.4 µM (inactive) | 3.29 µM (inactive) | 1.91 µM (inactive) | 1.54 µM (inactive) | 3.87 µM (inactive) | 2.65 µM (inactive) | 4.45 µM (inactive) | 28.4 µM (inactive)
